The source made the active and inactive calls. How the calls were made is not given here.
Tested on: GENE-TOX genotoxicity assays, various organisms and cells
Experiment: GENE-TOX mutagenicity studies
Conditions: for call: Assay Type: In vivo carcinogenicity studies
[1] = Species/Cell Type: Nonhuman, Assay Code: CCG+L, Evaluation Type: Evaluation A (Pre-1980)
[2] = Species/Cell Type: Saccharomyces cerevisiae, Assay Type: Reverse gene mutation, Assay Code: YER+, Evaluation Type: Evaluation A (Pre-1980)
[3] = Species/Cell Type: Salmonella typhimurium (one or more of the five standard strains: TA98, TA100, TA1535, TA1537, and TA1538), Assay Type: Histidine reverse gene mutation, Ames assay, Assay Code: SAL+*, Activation: With metabolic activation, Evaluation Type: Evaluation A (Pre-1980)
[4] = Species/Cell Type: Chinese hamster lung (V79) cells, Assay Type: Forward gene mutation at the HPRT or ouabain locus, Assay Code: V79+, Evaluation Type: Evaluation A (Pre-1980)
[5] = Species/Cell Type: Salmonella typhimurium (one or more of the five standard strains: TA98, TA100, TA1535, TA1537, and TA1538), Assay Type: Histidine reverse gene mutation, Ames assay, Assay Code: SALT, Evaluation Type: Evaluation A (Pre-1980)
[6] = Species/Cell Type: Salmonella typhimurium (one or more of the five standard strains: TA98, TA100, TA1535, TA1537, and TA1538), Assay Type: Histidine reverse gene mutation, Ames assay, Assay Code: SAL+, Evaluation Type: Evaluation A (Pre-1980)
[7] = Species/Cell Type: Schizosaccharomyces pombe, Assay Type: Reverse gene mutation, Assay Code: YEZ+, Evaluation Type: Evaluation A (Pre-1980)

## C=[N+]=[N-]
Species/Cell Type: Neurospora crassa, Assay Type: Reverse gene mutation, Assay Code: NER+, Evaluation Type: Evaluation A (Pre-1980)
  mutagenic call: active; positive
[1]
  call: active; positive
[2]
  mutagenic call: active; positive

## Nc1cccc2cc3ccccc3cc12
Species/Cell Type: Escherichia coli polA (W3119 vs P3478), Assay Type: Rec-assay, DNA effects (bacterial DNA repair), Assay Code: RE1T, Evaluation Type: Evaluation A (Pre-1980)
  mutagenic call: no conclusion
Species/Cell Type: Fischer rat embryo (RLV/1706) cells, Assay Type: Cell transformation, viral enhanced, Assay Code: CTR-, Evaluation Type: Evaluation A (Pre-1980)
  mutagenic call: inactive; negative
Species/Cell Type: Saccharomyces cerevisiae, Assay Type: Mitotic recombination or gene conversion, Assay Code: YEH+/-*, Activation: With metabolic activation, Evaluation Type: Evaluation A (Pre-1980)
  mutagenic call: inactive; positive without activation, negative with activation
[3]
  mutagenic call: active; positive
Species/Cell Type: Salmonella typhimurium, Assay Type: Forward and reverse gene mutation, host-mediated assay, Assay Code: HMA-, Evaluation Type: Evaluation A (Pre-1980)
  mutagenic call: inactive; negative
Species/Cell Type: Syrian hamster embryo (SHE) cells, Assay Type: Cell transformation, clonal assay, Assay Code: CTC-, Evaluation Type: Evaluation A (Pre-1980)
  mutagenic call: inactive; negative

## Cc1c2ccccc2c(C)c2c3c(ccc12)[C@H](O)[C@@H](O)C=C3
[4]
  mutagenic call: active; positive
Species/Cell Type: Mouse prostate cells, Assay Type: Cell transformation, Assay Code: CTM+, Evaluation Type: Evaluation A (Pre-1980)
  mutagenic call: active; positive
[1]
  call: active; positive

## CC(=O)c1cc([N+](=O)[O-])c[nH]1
[5]
  mutagenic call: no conclusion

## O[C@@H]1[C@H](O)[C@@H](O)c2cc3ccc4cccc5ccc(c2[C@@H]1O)c3c45
Species/Cell Type: Chinese hamster lung (V79) cells, Assay Type: Forward gene mutation at the HPRT or ouabain locus, Assay Code: V79-*, Activation: With metabolic activation, Evaluation Type: Evaluation A (Pre-1980)
  mutagenic call: inactive; negative

## Nc1ncnc2c1ncn2[C@@H]1O[C@H](CO)[C@@H](O)[C@@H]1O
Species/Cell Type: Vicia faba, Assay Type: Chromosome aberrations, Assay Code: VIC+D, Dose Response: With dose response, Evaluation Type: Evaluation A (Pre-1980)
  mutagenic call: active; positive

## ClC1CO1 (stereo unspecified)
[4]
  mutagenic call: active; positive
[1]
  call: active; positive
Species/Cell Type: Saccharomyces cerevisiae, Assay Type: Mitotic recombination or gene conversion, Assay Code: YEC+, Evaluation Type: Evaluation A (Pre-1980)
  mutagenic call: active; positive
[6]
  mutagenic call: active; positive
[7]
  mutagenic call: active; positive

## c1ccc2c(c1)CCc1cc3ccc4c(c3cc1-2)CCCC4
[3]
  mutagenic call: active; positive

## C1=CC[C@@H](c2cccnc2)NC1
Species/Cell Type: Nonhuman, Assay Type: Sister-chromatid exchange (SCE) in vitro, Assay Code: SC2+D, Dose Response: With dose response, Evaluation Type: Evaluation B (Post-1980)
  mutagenic call: active; positive

## Nc1ccc(Br)cc1
Species/Cell Type: Mouse, Sex: Male, Assay Type: Sperm morphology, Assay Code: SPI-, Evaluation Type: Evaluation A (Pre-1980)
  mutagenic call: inactive; negative
Species/Cell Type: Nonhuman, Assay Type: Sister-chromatid exchange (SCE) in vivo, Assay Code: SC3T, Evaluation Type: Evaluation B (Post-1980)
  mutagenic call: no conclusion

## C=C[C@H]1CN2CC[C@H]1C[C@H]2[C@H](O)c1ccnc2ccc(OC)cc12
Species/Cell Type: Mammalian polychromatic erythrocytes, Assay Type: Micronucleus test, chromosome aberrations, Assay Code: MNT+U, Dose Response: Unconfirmed positive response, Evaluation Type: Evaluation B (Post-1980)
  mutagenic call: active; positive
Species/Cell Type: Nonhuman, Assay Type: Sister-chromatid exchange (SCE) in vivo, Assay Code: SC3+D, Dose Response: With dose response, Evaluation Type: Evaluation B (Post-1980)
  mutagenic call: active; positive

## CCCC=O
Species/Cell Type: Human lymphocytes, Assay Type: Sister-chromatid exchange (SCE) in vitro, Assay Code: SCL+, Evaluation Type: Evaluation B (Post-1980)
  mutagenic call: active; positive
Species/Cell Type: Human, Assay Type: Sister-chromatid exchange (SCE) in vitro, Assay Code: SC1+, Evaluation Type: Evaluation B (Post-1980)
  mutagenic call: active; positive

## CNC(=O)Oc1ccc(C)c(C)c1
Species/Cell Type: Bacillus subtilis (H17 vs M45T), Assay Type: Rec-assay, spot test, DNA effects (bacterial DNA repair), Assay Code: REX-, Evaluation Type: Evaluation A (Pre-1980)
  mutagenic call: inactive; negative
Species/Cell Type: Escherichia coli WP2, Assay Type: Tryptophan reverse gene mutation, Assay Code: WP2-, Evaluation Type: Evaluation A (Pre-1980)
  mutagenic call: inactive; negative

## CCCO
Species/Cell Type: Nonhuman, Assay Type: Sister-chromatid exchange (SCE) in vitro, Assay Code: SC2-, Evaluation Type: Evaluation A (Pre-1980)
  mutagenic call: inactive; negative

## Cc1cc(Cl)ccc1OCCCC(=O)O
Species/Cell Type: Drosophila melanogaster, Assay Type: Sex-linked recessive lethal gene mutation, Assay Code: SRL-, Evaluation Type: Evaluation A (Pre-1980)
  mutagenic call: inactive; negative
Species/Cell Type: Salmonella typhimurium, Serratia marcesens, Assay Type: Forward and reverse gene mutation, host-mediated assay, Assay Code: HM2-, Evaluation Type: Evaluation A (Pre-1980)
  mutagenic call: inactive; negative

## O[C@@H]1[C@H]2O[C@H]2c2cc3ccc4cccc5ccc(c2[C@H]1O)c3c45
[6]
  mutagenic call: active; positive

## Cc1cc2c(c3ccc4ccccc4c13)CC(O)C2=O (stereo unspecified)
[3]
  mutagenic call: active; positive

## Cc1ccc2ccc3c4c(ccc3c2c1)C(=O)CC4
[5]
  mutagenic call: no conclusion

## CC(C)=CC1C(C(=O)OCc2cccc(Oc3ccccc3)c2)C1(C)C (stereo unspecified)
Species/Cell Type: Human diploid fibroblasts, Assay Type: Unscheduled DNA synthesis (UDS) in vitro, DNA effects, Assay Code: UDH-, Evaluation Type: Evaluation A (Pre-1980)
  mutagenic call: inactive; negative
Species/Cell Type: Saccharomyces cerevisiae, Assay Type: Mitotic recombination or gene conversion, Assay Code: YEH-, Evaluation Type: Evaluation A (Pre-1980)
  mutagenic call: inactive; negative

## [Cl][Pt-2]([Cl])([Cl])[Cl]
Species/Cell Type: Chinese hamster ovary (CHO) cells, Assay Type: Forward gene mutation at the HPRT locus, Assay Code: CHOT, Evaluation Type: Evaluation B (Post-1980)
  mutagenic call: no conclusion

## COc1ccccc1[N+](=O)[O-]
[5]
  mutagenic call: no conclusion

## CCOC(=O)NC(=S)Nc1ccccc1NC(=S)NC(=O)OCC
Species/Cell Type: Aspergillus nidulans, Assay Type: Aneuploidy, chromosome aberrations, Assay Code: ASN+, Evaluation Type: Evaluation A (Pre-1980)
  mutagenic call: active; positive
Species/Cell Type: Aspergillus nidulans, Assay Type: Mitotic recombination, Assay Code: ASGT, Evaluation Type: Evaluation A (Pre-1980)
  mutagenic call: no conclusion

## COS(=O)(=O)OC
Species/Cell Type: Arabidopsis species, Assay Type: Gene mutation, Assay Code: ARM+, Evaluation Type: Evaluation A (Pre-1980)
  mutagenic call: active; positive
Species/Cell Type: Aspergillus nidulans, Assay Type: Forward gene mutation, Assay Code: ASF+, Evaluation Type: Evaluation A (Pre-1980)
  mutagenic call: active; positive
Species/Cell Type: Chinese hamster ovary (CHO) cells, Assay Type: Forward gene mutation at the HPRT locus, Assay Code: CHO+D, Dose Response: With dose response, Evaluation Type: Evaluation A (Pre-1980)
  mutagenic call: active; positive
Species/Cell Type: Drosophila melanogaster, Assay Type: Aneuploidy, partial sex chromosome loss, chromosome aberrations, Assay Code: DAP-M, Evaluation Type: Evaluation A (Pre-1980)
  mutagenic call: inactive; negative
Species/Cell Type: Drosophila melanogaster, Assay Type: Aneuploidy, whole sex chromosome loss, chromosome aberrations, Assay Code: DAC+M, Evaluation Type: Evaluation A (Pre-1980)
  mutagenic call: active; positive
Species/Cell Type: Drosophila melanogaster, Assay Type: Sex-linked recessive lethal gene mutation, Assay Code: SRL+, Evaluation Type: Evaluation A (Pre-1980)
  mutagenic call: active; positive
Species/Cell Type: Drosophila melanogaster, Sex: Male, Assay Type: Heritable translocation test, chromosome aberrations, Assay Code: DHT+, Evaluation Type: Evaluation A (Pre-1980)
  mutagenic call: active; positive
Species/Cell Type: Escherichia coli polA (W3119 vs P3478), Assay Type: Rec-assay, DNA effects (bacterial DNA repair), Assay Code: RE1+, Evaluation Type: Evaluation A (Pre-1980)
  mutagenic call: active; positive
Species/Cell Type: Human, Assay Type: Sister-chromatid exchange (SCE) in vitro, Assay Code: SC1+D, Dose Response: With dose response, Evaluation Type: Evaluation A (Pre-1980)
  mutagenic call: active; positive
Species/Cell Type: Nonhuman, Assay Type: Chromosome aberrations in vitro, Assay Code: CY&+, Evaluation Type: Evaluation A (Pre-1980)
  mutagenic call: active; positive
Species/Cell Type: Nonhuman, Assay Code: CCG+, Evaluation Type: Evaluation A (Pre-1980)
  call: active; positive
Species/Cell Type: Nonhuman, Assay Type: Sister-chromatid exchange (SCE) in vitro, Assay Code: SC2+, Evaluation Type: Evaluation A (Pre-1980)
  mutagenic call: active; positive
[2]
  mutagenic call: active; positive
[5]
  mutagenic call: no conclusion
Species/Cell Type: Salmonella typhimurium, Assay Type: Forward and reverse gene mutation, host-mediated assay, Assay Code: HMA+, Evaluation Type: Evaluation A (Pre-1980)
  mutagenic call: active; positive
[7]
  mutagenic call: active; positive

## ClN1CCCCC1
Species/Cell Type: Mammalian polychromatic erythrocytes, Assay Type: Micronucleus test, chromosome aberrations, Assay Code: MNT-, Evaluation Type: Evaluation B (Post-1980)
  mutagenic call: inactive; negative

## CCCCN(CCC(=O)O)N=O
[6]
  mutagenic call: active; positive

## O=Cc1ccco1
Species/Cell Type: Human lymphocytes, Assay Type: Sister-chromatid exchange (SCE) in vitro, Assay Code: SCL+D, Dose Response: With dose response, Evaluation Type: Evaluation B (Post-1980)
  mutagenic call: active; positive
Species/Cell Type: Human, Assay Type: Sister-chromatid exchange (SCE) in vitro, Assay Code: SC1+D, Dose Response: With dose response, Evaluation Type: Evaluation B (Post-1980)
  mutagenic call: active; positive
[6]
  mutagenic call: active; positive

## Oc1cc2ccc3cc4ccccc4c4ccc(c1)c2c34
Species/Cell Type: Chinese hamster lung (V79) cells, Assay Type: Forward gene mutation at the HPRT or ouabain locus, Assay Code: V79-, Evaluation Type: Evaluation A (Pre-1980)
  mutagenic call: inactive; negative
[1]
  call: active; positive
[3]
  mutagenic call: active; positive
